SMILES strings stand for the structures.

The test concerns 5-lipoxygenase-activating protein (FLAP). Kind of test: cells. The arrangement: species or system human neutrophils; Inhibition of 5-LO product formation (LTB4, its trans isomers, 5-H(p)ETE) in A23187-stimulated human neutrophils, FLAP-dependent assay. The settings on record: Neutrophil; 2.5 uM A23187.
As to `COc1ccc(-n2c(OCc3ccc4ccccc4n3)nnc2-c2cccs2)cc1` [6o], the IC50 (commonly the concentration that gives 50% inhibition) was found to be 6.34 ± 0.79 µM.

`COc1ccc(-n2c(OCc3nc4ccccc4s3)nnc2-c2cccs2)cc1` [6n]: 3.01 ± 0.84 µM corresponded to half-maximal inhibition (IC50). The compound `COc1ccc(-n2c(SCc3nc4ccccc4s3)nnc2-c2ccc(C#N)cc2)cc1` [6s] returned an IC50 of 1.92 ± 0.58 µM. For the compound `COc1ccc(-n2c(SCc3nc4ccccc4s3)nnc2-c2cccs2)cc1` [6a], half-maximal inhibition (IC50) required 2.18 ± 0.65 µM. Turning to `COc1ccc(-n2c(SCc3ccc4ccccc4n3)nnc2-c2cccs2)cc1` [6j], the IC50 is 3.69 ± 1.02 µM.

As to `COc1ccc(-n2c(SCc3nc4ccccc4s3)nnc2-c2ccccc2)cc1` [6q], the IC50 was found to be 1.28 ± 0.19 µM. Next, `COc1cccc(-n2c(SCc3ccc4ccccc4n3)nnc2-c2cccs2)c1` [6k]: 4.17 ± 0.27 µM; `N#Cc1ccc(-c2nnc(SCc3nc4ccccc4s3)n2-c2ccccc2)cc1` [6z]: 1.93 ± 0.37 µM; `COc1cccc(-n2c(SCc3nc4ccccc4s3)nnc2-c2cccs2)c1` [6c]: 1.58 ± 0.59 µM. Next, `COc1ccc(-n2c(SCc3ccc(C(F)(F)F)o3)nnc2-c2cccs2)cc1` [6l]: 1.42 ± 0.31 µM; `Clc1ccc(-n2c(SCc3nc4ccccc4s3)nnc2-c2cccs2)cc1` [6d]: 1.36 ± 0.27 µM.
